Experimental data reported in patent US20040176339A1, “Antineoplastic combinations” (Wyeth, priority 2003, published 2004).

Columns and labels:
[1] = test system: locally advanced or metastatic breast cancer; test: Clinical trial of CCI-779 plus letrozole: preliminary tumor responses (RECIST); format: in vivo, postmenopausal women; details: for pts with SD 24 wk: CCI pts on HD schedules, letrozole-alone pts; for partial responses (RECIST): evaluable pts: CCI n=13 (responders on HD schedules), letrozole alone n=6; for stable disease (RECIST): evaluable pts: CCI n=13, letrozole alone n=6
Description: (§1) The combination of CCI-779 and letrozole in postmenopausal women with locally advanced or metastatic breast cancer is being evaluated in this clinical trial.
(§2) Randomization is in a 1:1:1 ratio (˜30 evaluable pts/arm), letrozole alone: letrozole with CCI daily (CCI daily arm): letrozole with CCI daily for 5 days every 2 weeks (CCI intermittent arm). All pts receive 2.5 mg letrozole daily.
(§3) Thus, the protocol was amended and doses were reduced to low dose (LD) schedules, 10 mg CCI daily and 30 mg CCI intermittent. As of 1 Dec.

[2] = Stability of CCI-779 in parenteral cosolvent formulation; format: physicochemical; details: citric acid at a concentration of less than 0.01% w/v
Text: In this embodiment, the stability of CCI-779 in parenterally acceptable alcoholic cosolvents is enhanced by addition of an antioxidant to the formulation. Acceptable antioxidants include, but are not limited to, citric acid, d,l-α-tocopherol, BHA, BHT, monothioglycerol, ascorbic acid, propyl gallate, and mixtures thereof. Generally, the parenteral formulations useful in this embodiment of the invention will contain an antioxidant component(s) in a concentration ranging from 0.001% to 1% w/v, or 0.01% to 0.5% w/v, of the cosolvent concentrate, although lower or higher concentrations may be desired. Of the antioxidants, d,l-α-tocopherol is particularly desirable and is used at a concentration of 0.01 to 0.1% w/v with a preferred concentration of 0.075% w/v of the cosolvent concentrate.
Examples of such chelating agents include, e.g., citric acid, acetic acid, and ascorbic acid (which may function as both a classic antioxidant and a chelating agent in the present formulations). Other chelating agents include such materials as are capable of binding metal ions in solution, such as ethylene diamine tetra acetic acid (EDTA), its salts, or amino acids such as glycine are capable of enhancing the stability of CCI-779. […] Optimal concentrations for the selected antioxidant(s) can be readily determined by one of skill in the art, based upon the information provided herein.

[3] = test system: human glioblastoma cell line; details: in vitro; cited from earlier work
human tumor xenografts = details: nude mice, cited from earlier work
[4] = Clinical trial of CCI-779 plus letrozole: safety/tolerability
Description: as §1, §2, §3

[5] = test system: histologically diverse tumor cells; details: cited from earlier work

| stability of CCI-779 in formulation [2] | SMILES | stable disease, pts on HD schedules ([1]; CCI HD schedules (25 mg daily / 75 mg intermittent) with letrozole) | stable disease, pts on LD schedules ([1]; CCI LD schedules (10 mg daily / 30 mg intermittent) with letrozole) | pts with SD 24 wk [1] | complete response (RECIST) ([1]; evaluable CCI pts n=13, responder on HD schedule) | partial responses (RECIST) [1] | stable disease (RECIST) [1] | growth factor (platelet-derived)-induced stimulation of glioblastoma cells [3] | activity in orthotopic glioma model (human tumor xenografts) | activity against human tumor xenografts (human tumor xenografts; diverse histological types, gliomas particularly sensitive) | growth of human pancreatic tumors and breast cancer lines in vivo (human tumor xenografts; several human pancreatic tumors, one of two breast cancer lines) | patients with toxicity that resulted in dose delay/reduction or discontinuation ([4]; female, human, in vivo) | growth of tumor cells in vitro ([5]; CNS cancer, leukemia (T-cell), breast cancer, prostate cancer and melanoma lines among the most sensitive) | cell cycle effect ([5]; in vitro tumor cells) | grade 3-4 toxicities ([4]; letrozole alone 2.5 mg daily, 12 pts) |
| --- | --- | --- | --- | --- | --- | --- | --- | --- | --- | --- | --- | --- | --- | --- | --- |
| enhanced the stability | CO[C@H]1C[C@@H]2CC[C@@H](C)[C@@](O)(O2)C(=O)C(=O)N2CCCC[C@H]2C(=O)O[C@H]([C@H](C)C[C@@H]2CC[C@@H](OC(=O)C(C)(CO)CO)[C@H](OC)C2)CC(=O)[C@H](C)/C=C(\C)[C@@H](O)[C@@H](OC)C(=O)[C@H](C)C[C@H](C)/C=C/C=C/C=C/1C [CCI-779, Rapamycin 42-ester with 3-hydroxy-2-(hydroxymethyl)-2-methylpropionic acid] | 6 pts | 3 pts | 4 pts | 1 pts | 3 pts | 9 pts | markedly suppressed | active | has activity against human tumor xenografts | inhibited | 3 patients | inhibit the growth | arrested cells in the G1 phase | – |
| – | N#Cc1ccc(C(c2ccc(C#N)cc2)n2cncn2)cc1 [letrozole, reference compound] | – | – | 1 pts | – | 2 pts | 4 pts | – | – | – | – | – | – | – | No grade 3-4 toxicities |
